In brackets after ≈: the same amount, converted by molar mass. Read-outs that look alike come from different tables or passages of the source.
Legend:
LoVo cells = experiment: Colony assay (cytotoxicity after 4 hr treatment), LoVo cells; format: cell-based; conditions: Homo sapiens, read-out: IC50 (concentration inhibiting 50% colony growth), LoVo
Protocol: (§1) 3'-deamino-3' 2-benzoyl-4-morpholinyl!doxorubicin (1a) was tested "in vitro" against LoVo and LoVo-resistant-doxorubicin (LoVo/DX) cells using a single cell plating technique after 4 hr treatment (Colony assay). The 50% inhibition concentration (IC50) was calculated using concentration-response curves. Compound 1a was tested in comparison with Doxorubicin.
(§2) Cytotoxicity after 4 hr treatment IC50 = ng/ml^(1)
(§3) ^(1) IC50 = concentration inhibiting 50% colony growth

LoVo/DX cells = experiment: Colony assay (cytotoxicity after 4 hr treatment), LoVo-resistant-doxorubicin (LoVo/DX) cells; format: cell-based; conditions: for IC50: read-out: IC50 (concentration inhibiting 50% colony growth), LoVo/DX; for R.I. = Resistance Index = (IC50 LoVo/DX)/(IC50 LoVo): ratio LoVo/DX to LoVo
Protocol: as §1, §2, §3
^(2) R.I. = Resistance Index = (IC50 LoVo/DX)/(IC50 LoVo)

[1] = system: P388/DX (Johnson) Leukemias; experiment: Antitumor activity in vivo against P388 murine leukemia resistant to Doxorubicin (P388/DX, Johnson); conditions: P388/DX 10^5 cells/mouse i.v. in CDF mice; treatment on day 1; at optimal dose: 1a 1.2 mg/kg, Doxorubicin 13-16.9 mg/kg
Protocol: Antitumor activity against P388/DX
^(1) 10^5 cells/mouse (P388/DX, Johnson) transplanted i.v. in CDF
Treatment on day 1 after inoculation of tumor.
^(3) Median survival time; % over […] controls.
Compound 1a was evaluated "in vivo" against P388 murine Leukemias resistant to Doxorubicin, in comparison with Doxorubicin.

| Structure (SMILES) | IC50 (LoVo cells; LoVo, 4 h) [µg/mL] | IC50 (LoVo/DX cells; LoVo/DX, 4 h) [µg/mL] | R.I. = Resistance Index = (IC50 LoVo/DX)/(IC50 LoVo) (LoVo/DX cells; 4 hr treatment) | T/C % (median survival time; % over treated controls) [1] | IC50 (LoVo cells; LoVo cells, 4 hr treatment, colony assay) [µg/mL] | IC50 (LoVo/DX cells; LoVo/DX cells, 4 hr treatment, colony assay) [µg/mL] |
| --- | --- | --- | --- | --- | --- | --- |
| COc1cccc2c1C(=O)c1c(O)c3c(c(O)c1C2=O)C[C@@](O)(C(=O)CO)C[C@@H]3O[C@H]1C[C@H](N2CCOC(OC(=O)c3ccccc3)C2)[C@H](O)[C@H](C)O1 (some centres unmarked) [Compound 1a] | 0.0069 (≈ 0.0094 µM) | 0.027 (≈ 0.0368 µM) | 3.9 | 175% | – | – |
| COc1cccc2c1C(=O)c1c(O)c3c(c(O)c1C2=O)C[C@@](O)(C(=O)CO)C[C@@H]3O[C@H]1C[C@H](N)[C@H](O)[C@H](C)O1 [Doxorubicin, doxorubicin] | – | – | 36 | 86-100% | 0.06 (≈ 0.11 µM) | 2.16 (≈ 3.97 µM) |

From patent US5510469A, “2-acyloxy-4-morpholinyl anthracyclines” (priority 1990, dated 1996)
